Test results: patent US9796742B2, “Kinase inhibitors” (Respivert Limited, priority 2012, dated 2017)
Where two headings read alike, the source gives them in different places.

What was measured:
d-U937 cells = test: LPS-induced TNFα/IL-8 release in d-U937 cells; assay type: cell-based; details: Homo sapiens, dU937, LPS-stimulated d-U937 cells
Description: U937 cells, a human monocytic cell line, are differentiated to macrophage-type cells by incubation with phorbol myristate acetate (PMA; 100 ng/mL) for 48 to 72 hr. Cells are pre-incubated with final concentrations of test compound for 2 hr and are then stimulated with 0.1 μg/mL of LPS (from E. Coli: O111:B4, Sigma) for 4 hr. The supernatant is collected for determination of TNFα and IL-8 concentrations by sandwich ELISA (Duo-set, R&D systems). The inhibition of TNFα production is calculated as a percentage of that achieved by 10 μg/mL of BIRB796 at each concentration of test compound by comparison against vehicle control. The relative 50% effective concentration (REC50) is determined from the resultant concentration-response curve. The inhibition of IL-8 production is calculated at each concentration of test compound by comparison with vehicle control. The 50% inhibitory concentration (IC50) is determined from the resultant concentration-response curve.

PBMCs [1] = test: LPS-induced TNFα/IL-8 release in PBMC cells; assay type: cell-based; details: Homo sapiens, LPS-stimulated PBMCs
Outline: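 Cytokines (TNFα, IL-8) in supernatants were quantified by sandwich ELISA after a 24 h challenge with 1 ng/mL E. coli LPS at 37° C, 5% CO2. Healthy-donor PBMCs had been exposed to compound for 2 h beforehand. IC50 values were fitted from the concentration-response curves.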

GSK3α = GSK3α (Homo sapiens (Human), UniProt P49840); test: GSK 3α enzyme inhibition (FRET, Z-LYTE; Method 2); assay type: biochemical
GSK3α, sequence (P49840 whole entry): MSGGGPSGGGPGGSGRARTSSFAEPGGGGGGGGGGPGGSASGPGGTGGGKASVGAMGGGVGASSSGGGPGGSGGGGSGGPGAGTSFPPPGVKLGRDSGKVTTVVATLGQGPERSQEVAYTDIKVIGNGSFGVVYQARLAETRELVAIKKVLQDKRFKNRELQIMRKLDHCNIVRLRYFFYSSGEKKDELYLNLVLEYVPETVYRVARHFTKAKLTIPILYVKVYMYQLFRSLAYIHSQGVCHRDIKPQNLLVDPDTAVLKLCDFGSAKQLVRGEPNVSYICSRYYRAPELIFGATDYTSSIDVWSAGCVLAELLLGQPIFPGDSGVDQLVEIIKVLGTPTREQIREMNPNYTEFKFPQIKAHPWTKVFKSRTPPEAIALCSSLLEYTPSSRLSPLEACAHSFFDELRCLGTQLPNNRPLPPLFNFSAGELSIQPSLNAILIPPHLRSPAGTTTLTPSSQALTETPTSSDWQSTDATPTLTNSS
Outline: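 GSK3-α protein preincubated with compound for 105 min, then Z-LYTE FRET peptide and ATP added for 1 h before protease development for 1 h. Phosphorylation taken from coumarin/fluorescein emission ratio; percent inhibition against uninhibited control and IC50 calculated from concentration-response curves.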

c-Src = c-Src (Homo sapiens (Human), UniProt P12931); test: c-Src enzyme inhibition (FRET, Z-LYTE); assay type: biochemical
c-Src, sequence (P12931 whole entry, looked up): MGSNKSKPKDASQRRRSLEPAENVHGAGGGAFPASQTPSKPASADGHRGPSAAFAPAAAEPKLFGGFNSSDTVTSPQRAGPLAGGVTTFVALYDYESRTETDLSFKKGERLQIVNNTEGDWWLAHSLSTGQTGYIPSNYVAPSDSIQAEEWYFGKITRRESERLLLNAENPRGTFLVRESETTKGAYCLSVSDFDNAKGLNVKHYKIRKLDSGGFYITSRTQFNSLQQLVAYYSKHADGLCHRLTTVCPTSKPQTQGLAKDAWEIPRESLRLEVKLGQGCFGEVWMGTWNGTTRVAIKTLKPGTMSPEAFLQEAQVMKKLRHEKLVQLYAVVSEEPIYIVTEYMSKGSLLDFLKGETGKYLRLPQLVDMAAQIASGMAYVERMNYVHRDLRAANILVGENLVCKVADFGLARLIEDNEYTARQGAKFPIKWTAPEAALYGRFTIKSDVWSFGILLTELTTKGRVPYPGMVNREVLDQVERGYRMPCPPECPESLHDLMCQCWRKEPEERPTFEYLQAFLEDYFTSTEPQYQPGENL
Description: (§1) The enzyme inhibitory activities of compounds disclosed herein are determined by FRET using synthetic peptides labelled with both donor and acceptor fluorophores (Z-LYTE, Invitrogen Ltd., Paisley, UK).
(§2) The inhibitory activities of compounds of the invention against c-Src and Syk enzymes (Invitrogen), are evaluated in a similar fashion to that described hereinabove. The relevant enzyme (3000 ng/mL or 2000 ng/mL respectively, 2.5 μL) is incubated with the test compound (either 4 μg/mL, 0.4 μg/mL, 0.04 μg/mL, or 0.004 μg/mL, 2.5 μL each) for 2 hr at RT. The FRET peptides (8 μM. 2.5 μL), and appropriate ATP solutions (2.5 μL, 800 μM for c-Src, and 60 μM ATP for Syk) are then added to the enzymes/compound mixtures and incubated for 1 hr. Development reagent (protease, 5 μL) is added for 1 hr prior to detection in a fluorescence microplate reader (Varioskan® Flash, ThermoFisher Scientific).
(§3) In all cases, the site-specific protease cleaves non-phosphorylated peptide only and eliminates the FRET signal. Phosphorylation levels of each reaction are calculated using the ratio of coumarin emission (donor) over fluorescein emission (acceptor), for which high ratios indicate high phosphorylation and low ratios indicate low phosphorylation levels. The percentage inhibition of each reaction is calculated relative to non-inhibited control and the 50% inhibitory concentration (IC50 value) is then calculated from the concentration-response curve.

p38 MAPKα = p38 MAPKα (Homo sapiens (Human), UniProt Q16539); test: p38 MAPKα enzyme inhibition (FRET, Z-LYTE; Method 2); assay type: biochemical
p38 MAPKα, sequence (Q16539 whole entry): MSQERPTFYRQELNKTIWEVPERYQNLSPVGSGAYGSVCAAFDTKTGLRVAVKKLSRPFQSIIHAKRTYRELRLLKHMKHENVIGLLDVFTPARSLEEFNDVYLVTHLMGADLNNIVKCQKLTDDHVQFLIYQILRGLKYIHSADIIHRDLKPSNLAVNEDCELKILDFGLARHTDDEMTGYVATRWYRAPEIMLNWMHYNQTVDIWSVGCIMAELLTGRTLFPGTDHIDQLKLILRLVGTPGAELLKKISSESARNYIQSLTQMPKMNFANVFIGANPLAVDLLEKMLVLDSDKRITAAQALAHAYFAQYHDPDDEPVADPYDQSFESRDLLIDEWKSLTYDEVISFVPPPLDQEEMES
Description: as §1
The inhibitory activities of test compounds against the p38 MAPKα isoform (MAPK14: Invitrogen), are evaluated indirectly by determining the level of activation/phosphorylation of the down-stream molecule, MAPKAP-K2. The p38 MAPKα protein (80 ng/mL, 2.5 μL) is mixed with the test compound (2.5 μL of either 4 μg/mL, 0.4 μg/mL, 0.04 μg/mL or 0.004 μg/mL) for 2 hr at RT. […] The mixture is incubated for 1 hr at RT. Development reagent (protease, 5 μL) is added for 1 hr prior to detection in a fluorescence microplate reader (Varioskan® Flash, ThermoFisher Scientific).
Method 2 This method follows the same steps as Method 1 above, but utilises a higher concentration of the p38 MAPKα protein (2.5 μL of 200 ng/mL protein instead of 2.5 μL of 80 ng/mL protein) for mixing with the test compound.
as §3

Syk = Syk (Homo sapiens (Human), UniProt P43405); test: Syk enzyme inhibition (FRET, Z-LYTE); assay type: biochemical
Description: as §1, §2, §3

PBMCs [2] = test: IL-2 and IFN gamma release in CD3/CD28 stimulated PBMC cells; assay type: cell-based; details: Homo sapiens
Description: PBMCs from healthy subjects are separated from whole blood using a density gradient (Lymphoprep, Axis-Shield Healthcare). Cells are added to a 96 well plate pre-coated with a mixture of CD3/[…] monoclonal antibodies (0.3 μg/mL eBioscience and 3 μg/mL BD Pharmingen respectively). Compound at the desired concentration is then added to the wells and the plate left for 3 days under normal tissue culture conditions. Supernatants are harvested and IL-2 and IFN gamma release determined by Sandwich ELISA (Duo-set, R&D System). The IC50 is determined from the dose response curve.

HT29 cells = test: IL-1β-induced IL-8 release in HT29 cells; assay type: cell-based; details: Homo sapiens, HT-29, IL-1β-stimulated HT29 cells, read-out: IC50 Values for Inhibition of Cytokine Release, HT29 cells IL-8
Description: HT29 cells, a human colon adenocarcinorna cell line, are plated in a 96 well plate (24 hrs) and pre-treated with compounds at the desired concentration for 2 hours before addition of 5 ng/mL of IL-1β (Abcam) for 24 hours. Supernatants are harvested for IL-8 quantification by Sandwich ELISA (Duo-set, R&D System). The IC50 is determined from the dose response curve.

[3] = TNFα (REC50 relative to BIRB796 per method), read-out: IC50 Values for Inhibition of Cytokine Release, dU937 cells TNFα
[4] = IL-8, read-out: IC50 Values for Inhibition of Cytokine Release, PBMCs IL-8
[5] = TNFα, read-out: IC50 Values for Inhibition of Cytokine Release, PBMCs TNFα
[6] = IFNγ, read-out: IC50 Values for Inhibition of Cytokine Release, PBMCs IFNγ
[7] = IL-2, read-out: IC50 Values for Inhibition of Cytokine Release, PBMCs IL-2
[8] = IL-8, read-out: IC50 Values for Inhibition of Cytokine Release, dU937 cells IL-8

Compound	IC50 (d-U937 cells; [3])	IC50 (PBMCs [1]; [4])	IC50 (PBMCs [1]; [5])	IC50 (GSK3α)	IC50 (c-Src)	IC50 (p38 MAPKα)	IC50 (Syk)	IC50 (PBMCs [2]; [6])	IC50 (PBMCs [2]; [7])	IC50 (HT29 cells)	IC50 (d-U937 cells; [8])
CC(C)c1cc(NC(=O)Nc2ccc(Oc3ccnc(Nc4ccccc4)n3)c3ccccc23)n(-c2ccc(P(C)(C)=O)cc2)n1 [Example 4, 1-(1-(4-(Dimethylphosphoryl)phenyl)-3-isopropyl-1H-pyrazol-5-yl)-3-(4-((2-(phenylamino)-pyrimidin-4-yl)oxy)naphthalen-1-yl)urea]	19.2 nM	58.9 nM	20.8 nM	220 nM	12 nM	–	–	–	–	–	–
CC(C)c1cc(NC(=O)Nc2ccc(Oc3ccnc(Nc4cc(OCCN5CCOCC5)cc(C(F)(F)F)c4)n3)c3ccccc23)n(-c2cccc(CP(C)(C)=O)c2)n1 [Example 49, 1-(1-(3-((Dimethylphosphoryl)methyl)phenyl)-3-isopropyl-1H-pyrazol-5-yl)-3-(4-((2-((3-(2-morpholinoethoxy)-5-(trifluoromethyl)phenyl)amino)pyrimidin-4-yl)oxy)naphthalen-1-yl)urea]	–	1.4 nM	–	> 10000 nM	95 nM	202 nM	219 nM	5.1 nM	45.6 nM	3.8 nM	–
CC(C)(C)c1cc(NC(=O)Nc2ccc(Oc3ccnc(Nc4ccccc4)c3)c3ccccc23)n(-c2cccc(CP3(=O)CCCC3)c2)n1 [Example 44, 1-(3-(tert-Butyl)-1-(3-((1-oxidophospholan-1-yl)methyl)phenyl)-1H-pyrazol-5-yl)-3-(4-((2-(phenylamino)pyridin-4-yl)oxy)naphthalen-1-yl)urea]	–	4 nM	–	8040 nM	–	201 nM	–	–	–	7.1 nM	–
COCC(=O)Nc1cc(Oc2ccc(NC(=O)Nc3cc(C(C)(C)C)nn3-c3ccc(P(C)(C)=O)cc3)c3ccccc23)ccn1 [Example 3, N-(4-((4-(3-(3-(tert-Butyl)-1-(4-(dimethylphosphoryl)phenyl)-1H-pyrazol-5-yl)ureido)-naphthalen-1-yl)oxy)pyridin-2-yl)-2-methoxyacetamide]	3.6 nM	–	2.5 nM	16 nM	–	–	–	–	–	–	8.6 nM
CC(C)(C)c1cc(NC(=O)Nc2ccc(Oc3ccnc(Nc4cc(OCCN5CCOCC5)cc(C(F)(F)F)c4)n3)c3ccccc23)n(-c2cccc(CP(C)(C)=O)c2)n1 [Example 61, 1-(3-(tert-Butyl)-1-(3-((dimethylphosphoryl)methyl)phenyl)-1H-pyrazol-5-yl)-3-(4-((2-((3-(2-morpholinoethoxy)-5-(trifluoromethyl)phenyl)amino)pyrimidin-4-yl)oxy)naphthalen-1-yl)urea]	–	2.3 nM	–	4190 nM	14 nM	303 nM	24 nM	3.3 nM	50.7 nM	2.6 nM	–
CC(C)c1cc(NC(=O)Nc2ccc(Oc3ccnc(Nc4ccccc4)c3)c3ccccc23)n(-c2cccc(CP(C)(C)=O)c2)n1 [Example 42, 1-(1-(3-((Dimethylphosphoryl)methyl)phenyl)-3-isopropyl-1H-pyrazol-5-yl)-3-(4-((2-(phenylamino)pyridin-4-yl)oxy)naphthalen-1-yl)urea]	–	5.5 nM	–	6980 nM	47 nM	–	63 nM	–	–	5.6 nM	–
CC(C)(C)c1cc(NC(=O)Nc2ccc(Oc3ccnc(Nc4ccccc4)n3)c3ccccc23)n(-c2ccc(P(C)(C)=O)cc2)n1 [Example 1, 1-(3-(tert-Butyl)-1-(4-(dimethylphosphoryl)phenyl)-1H-pyrazol-5-yl)-3-(4-((2-(phenylamino)pyrimidin-4-yl)oxy)naphthalen-1-yl)urea]	2 nM	6.9 nM	1.3 nM	1280 nM	15 nM	8 nM	34 nM	–	–	–	4.9 nM
CC(C)(C)c1cc(NC(=O)Nc2ccc(Oc3ccnc(Nc4cc(C(=O)NCCN5CCOCC5)cc(C(F)(F)F)c4)n3)c3ccccc23)n(-c2cccc(CP(C)(C)=O)c2)n1 [Example 58, 3-((4-((4-(3-(3-(tert-Butyl)-1-(3-((dimethylphosphoryl)methyl)phenyl)-1H-pyrazol-5-yl)-ureido)naphthalen-1-yl)oxy)pyrimidin-2-yl)amino)-N-(2-morpholinoethyl)-5-(trifluoromethyl)benzamide]	–	1.4 nM	–	689 nM	7 nM	84 nM	12 nM	4.8 nM	62.1 nM	–	–
CC(C)(C)c1cc(NC(=O)Nc2ccc(Oc3ccnc(Nc4ccccc4)n3)c3ccccc23)n(-c2cccc(P(C)(C)=O)c2)n1 [Example 2, 1-(3-(tert-Butyl)-1-(3-(dimethylphosphoryl)phenyl)-1H-pyrazol-5-yl)-3-(4-((2-(phenylamino)pyrimidin-4-yl)oxy)naphthalen-1-yl)urea]	3.6 nM	–	4.3 nM	647 nM	–	–	–	–	–	–	9.4 nM
CC(C)(C)c1cc(NC(=O)Nc2ccc(Oc3ccnc(Nc4ccccc4)c3)c3ccccc23)n(-c2cccc(CP(C)(C)=O)c2)n1 [Example 41, 1-(3-(tert-Butyl)-1-(3-((dimethylphosphoryl)methyl)phenyl)-1H-pyrazol-5-yl)-3-(4-((2-(phenylamino)pyridin-4-yl)oxy)naphthalen-1-yl)urea]	–	2.8 nM	–	4300 nM	56 nM	357 nM	96 nM	–	56.4 nM	4.7 nM	–
CC(C)c1cc(NC(=O)Nc2ccc(Oc3ccnc(Nc4cc(OCCN5CCOCC5)cc(OC(F)(F)F)c4)n3)c3ccccc23)n(-c2cccc(CP(C)(C)=O)c2)n1 [Example 48, 1-(1-(3-((Dimethylphosphoryl)methyl)phenyl)-3-isopropyl-1H-pyrazol-5-yl)-3-(4-((2-((3-(2-morpholinoethoxy)-5-(trifluoromethoxy)phenyl)amino)pyrimidin-4-yl)oxy)naphthalen-1-yl)urea]	–	1.5 nM	–	> 10000 nM	87 nM	231 nM	232 nM	–	53.4 nM	4.3 nM	–
